Tests used:
[1] = Cytotoxicity against human PC3 cells assessed as inhibition of cell proliferation by sulforhodamine B assay; assay type: functional, cell-based; settings: PC-3
U-251 = experiment: Cytotoxicity against human U251 cells assessed as inhibition of cell proliferation by sulforhodamine B assay; assay type: functional, cell-based

Structure (SMILES)	IC50 [1] [nM]	IC50 (U-251) [nM]
CC(C)[C@]12O[C@H]1[C@@H]1O[C@@]13[C@@]1(C)CCC4=C(COC4=O)[C@]1(Cl)C[C@@H]1O[C@@]13C2=O	85	170
CC(C)[C@]12O[C@H]1[C@@H]1O[C@]13[C@]1(O[C@H]1[C@H](O)[C@@]1(O)C4=C(CC[C@]31C)C(=O)OC4)[C@@H]2O	589	1580
CC(C)[C@]12O[C@H]1[C@@H]1O[C@]13[C@]1(O[C@H]1[C@H](O)[C@@]1(O)C4=C(CC[C@]31C)C(=O)OC4)[C@H]2O	> 10000	> 10000
CC(C)[C@]12O[C@H]1[C@@H]1O[C@]13[C@]1(O[C@H]1C=C1C4=C(CC[C@@]13C)C(=O)OC4)[C@@H]2O	126	718
CC(C)[C@]12O[C@H]1[C@@H]1O[C@@]13[C@@]1(C)CCC4=C(COC4=O)[C@@]1(O)[C@@H](O)[C@@H]1O[C@@]13C2=O	5040	9860
CC(C)[C@]12O[C@H]1[C@@H]1O[C@@]13[C@@]1(C)CCC4=C(COC4=O)[C@]1(Br)C[C@@H]1O[C@@]13[C@]21CO1	893	2040
CC(C)[C@]12O[C@H]1[C@@H]1O[C@@]13[C@@]1(C)CCC4=C(COC4=O)[C@@H]1C[C@@H]1O[C@@]13C2=O [TRIPTONIDE]	26	31
CC(C)[C@]12O[C@H]1[C@@H]1O[C@@]13[C@@]1(C)CCC4=C(COC4=O)[C@]1(O)C[C@@H]1O[C@@]13C2=O	377	1030
CC(C)[C@]12O[C@H]1[C@@H]1O[C@]13[C@@]1(O[C@@H]1C[C@H]1C4=C(CC[C@@]13C)C(=O)OC4)[C@@H]2O	> 10000	> 10000
CC(C)[C@]12O[C@H]1[C@@H]1O[C@@]13[C@@]1(C)CCC4=C(COC4=O)[C@]1(O)[C@@H](O)[C@@H]1O[C@@]13C2=O	2270	2970
CC(C)[C@]12O[C@H]1[C@@H]1O[C@]13[C@]1(O[C@H]1C[C@@]1(Br)C4=C(CC[C@]31C)C(=O)OC4)[C@@H]2O	333	796
CC(C)[C@]12O[C@H]1[C@@H]1O[C@]13[C@]1(O[C@H]1C[C@@]1(O)C4=C(CC[C@]31C)C(=O)OC4)[C@@H]2O	275	488
CC(C)[C@]12O[C@H]1[C@@H]1O[C@@]13[C@@]1(C)CCC4=C(COC4=O)[C@]1(O)C[C@@H]1O[C@@]13[C@]21CO1	2610	5470
CC(C)[C@]12O[C@H]1[C@@H]1O[C@@]13[C@@]1(C)CCC4=C(COC4=O)[C@@]14O[C@H]4[C@@H]1O[C@@]13C2=O	4050	197
CC(C)[C@]12O[C@H]1[C@@H]1O[C@@]13[C@@]1(C)CCC4=C(COC4=O)[C@]1(Br)C[C@@H]1O[C@@]13C2=O	104	558
CC(C)[C@]12O[C@H]1[C@@H]1O[C@]13C(=CC[C@H]1C4=C(CC[C@@]13C)C(=O)OC4)[C@@H]2O	> 10000	> 10000
CC(C)[C@]12O[C@H]1[C@@H]1O[C@]13[C@]1(O[C@H]1C[C@H]1C4=C(CC[C@@]13C)C(=O)OC4)[C@@H]2O [TRIPTOLIDE]	20	33
CC(C)[C@]12O[C@H]1[C@@H]1O[C@@]13[C@@]1(C)CCC4=C(COC4=O)[C@]1(F)C[C@@H]1O[C@@]13C2=O	223	429
CC(C)[C@]12O[C@H]1[C@@H]1O[C@]13[C@]1(O[C@H]1C=C1C4=C(CC[C@@]13C)C(=O)OC4)[C@H]2O	3220	5040
CC(C)[C@]12O[C@H]1[C@@H]1O[C@@]13[C@@]1(C)CCC4=C(COC4=O)C1=C[C@@H]1O[C@@]13C2=O	171	1630
CC(C)[C@]12O[C@H]1[C@@H]1O[C@@]13[C@@]1(C)CCC4=C(COC4=O)[C@]1(Cl)C[C@@H]1O[C@@]13[C@]21CO1	871	925
